Test results as given in PubChem BioAssay (NCI).
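All cell lines were grown in 96-well plates and treated with compound for 48 hours. GI50 marks 50% less growth. The concentration for full growth arrest is given as TGI.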

Experiments:
Test in all cases: inhibition of tumour cell growth, NCI panel, 48 h
SW-620 colon = tested on: SW-620 colon
SF-268 CNS = tested on: SF-268 CNS
SF-295 CNS = tested on: SF-295 CNS
ACHN renal = tested on: ACHN renal
SN12C renal = tested on: SN12C renal
HT29 colon = tested on: HT29 colon
U251 CNS = tested on: U251 CNS
OVCAR-8 ovarian = tested on: OVCAR-8 ovarian
SK-OV-3 ovarian = tested on: SK-OV-3 ovarian
SNB-19 CNS = tested on: SNB-19 CNS

| SMILES | GI50 (SW-620 colon) [µM] | TGI (SW-620 colon) [µM] | GI50 (SF-268 CNS) [µM] | TGI (SF-268 CNS) [µM] | GI50 (SF-295 CNS) [µM] | TGI (SF-295 CNS) [µM] | GI50 (ACHN renal) [µM] | TGI (ACHN renal) [µM] | GI50 (SN12C renal) [µM] | TGI (SN12C renal) [µM] | GI50 (HT29 colon) [µM] | TGI (HT29 colon) [µM] | GI50 (U251 CNS) [µM] | TGI (U251 CNS) [µM] | GI50 (OVCAR-8 ovarian) [µM] | TGI (OVCAR-8 ovarian) [µM] | GI50 (SK-OV-3 ovarian) [µM] | TGI (SK-OV-3 ovarian) [µM] | GI50 (SNB-19 CNS) [µM] | TGI (SNB-19 CNS) [µM] |
| --- | --- | --- | --- | --- | --- | --- | --- | --- | --- | --- | --- | --- | --- | --- | --- | --- | --- | --- | --- | --- |
| CO/N=C(\C)COc1ccc2c(=O)c(-c3ccccc3)coc2c1 | > 100 | > 100 | 24.5 | 71 | 31.9 | 65.2 | 19.2 | 38.8 | 30.1 | 68.9 | > 100 | > 100 | 32.2 | > 100 | 21.4 | 46.8 | 21.9 | 80 | 17.7 | > 100 |
| COc1cc(C2C(C(=O)O)=C(COC(C)=O)Oc3cc4c(cc32)OCO4)cc(OC)c1OC (configuration not stated) | – | > 100 | – | – | – | > 100 | – | > 100 | – | > 100 | – | > 100 | – | > 100 | – | > 100 | – | > 100 | – | > 100 |
| CCCCCCOP(=O)(OCCCCCC)C(NC(=O)OCC)(C(F)(F)F)C(F)(F)F | – | > 100 | – | > 100 | – | > 100 | – | > 100 | – | > 100 | – | > 100 | – | > 100 | – | > 100 | – | > 100 | – | > 100 |
| CNC(=O)N(C)COC | – | > 100 | – | > 100 | – | > 100 | – | > 100 | – | > 100 | – | > 100 | – | > 100 | – | > 100 | – | > 100 | – | > 100 |
| CCOC(=O)C(O)(NC(=O)c1ccccc1F)C(F)(F)F (configuration not stated) | – | > 100 | – | > 100 | – | > 100 | – | > 100 | – | > 100 | – | > 100 | – | > 100 | – | > 100 | – | > 100 | – | > 100 |
| N#Cc1c(N)sc2c1-c1ccccc1OC2 | – | > 100 | – | > 100 | – | – | – | > 100 | – | 68.6 | – | > 100 | – | > 100 | – | – | – | > 100 | – | > 100 |
| CCc1ccc2nc(-c3ccc(O)cc3)sc2c1 | – | 38 | – | 37.8 | – | 30.6 | – | 38.2 | – | 27.7 | – | 30.2 | – | 33.6 | – | 38.9 | – | 32.3 | – | 35.5 |
